Experimental data as given in patent US11780830B2, “Triazolone derivatives or salts thereof and pharmaceutical compositions comprising the same” (YUHAN CORPORATION, priority 2018, dated 2023).

Key:
Type in all cases: biochemical
[1] = target: T1, recombinant human DAO (diamine oxidase) (Homo sapiens, UniProt P19801); assay: Activity on recombinant human DAO, method similar to the VAP-1 assay; details: substrate 1 mM putrescine; read-out: Inhibitory Activity (IC50, nM) DAO
T1 construct: purchased R&D systems
T1 sequence (P19801 20-751): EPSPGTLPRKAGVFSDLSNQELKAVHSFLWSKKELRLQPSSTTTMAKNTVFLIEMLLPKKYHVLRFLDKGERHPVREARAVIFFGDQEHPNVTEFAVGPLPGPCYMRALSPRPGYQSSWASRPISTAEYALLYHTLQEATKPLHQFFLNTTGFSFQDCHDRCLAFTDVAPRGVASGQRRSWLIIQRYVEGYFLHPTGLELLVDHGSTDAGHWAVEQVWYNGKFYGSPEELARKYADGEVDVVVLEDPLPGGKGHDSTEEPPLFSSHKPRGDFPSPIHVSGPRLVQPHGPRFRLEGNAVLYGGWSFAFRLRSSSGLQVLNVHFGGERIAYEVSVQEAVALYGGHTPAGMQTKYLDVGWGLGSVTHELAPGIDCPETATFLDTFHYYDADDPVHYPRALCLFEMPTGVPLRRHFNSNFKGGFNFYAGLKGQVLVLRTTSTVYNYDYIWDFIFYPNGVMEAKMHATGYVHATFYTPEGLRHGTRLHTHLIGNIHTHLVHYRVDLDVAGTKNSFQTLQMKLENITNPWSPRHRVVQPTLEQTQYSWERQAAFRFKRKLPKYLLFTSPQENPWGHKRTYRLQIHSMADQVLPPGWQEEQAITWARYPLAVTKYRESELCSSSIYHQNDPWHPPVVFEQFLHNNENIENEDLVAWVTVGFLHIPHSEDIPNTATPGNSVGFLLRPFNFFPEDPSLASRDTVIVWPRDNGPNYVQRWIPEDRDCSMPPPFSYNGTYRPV
Summary of the method: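 Inhibition of recombinant human diamine oxidase (DAO, R&D systems) was assessed by the same approach as the VAP-1 assay, using 1 mM putrescine as substrate. Hydrogen peroxide formed was detected through an HRP-coupled Amplex Red reaction yielding fluorescent resorufin, read at 544 nm excitation and 590 nm emission. IC50 values came from four-parameter logistic fitting in GraphPad Prism.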

[2] = target: T2, recombinant human MAO-B (monoamine oxidase-B) (Homo sapiens, UniProt P27338); assay: Activity on recombinant human MAO-B, method similar to the VAP-1 assay; details: substrate 1 mM benzylamine; read-out: Inhibitory Activity (IC50, nM) MAO-B
T2 construct: purchased Sigma-Aldrich
T2 sequence (P27338 1-520): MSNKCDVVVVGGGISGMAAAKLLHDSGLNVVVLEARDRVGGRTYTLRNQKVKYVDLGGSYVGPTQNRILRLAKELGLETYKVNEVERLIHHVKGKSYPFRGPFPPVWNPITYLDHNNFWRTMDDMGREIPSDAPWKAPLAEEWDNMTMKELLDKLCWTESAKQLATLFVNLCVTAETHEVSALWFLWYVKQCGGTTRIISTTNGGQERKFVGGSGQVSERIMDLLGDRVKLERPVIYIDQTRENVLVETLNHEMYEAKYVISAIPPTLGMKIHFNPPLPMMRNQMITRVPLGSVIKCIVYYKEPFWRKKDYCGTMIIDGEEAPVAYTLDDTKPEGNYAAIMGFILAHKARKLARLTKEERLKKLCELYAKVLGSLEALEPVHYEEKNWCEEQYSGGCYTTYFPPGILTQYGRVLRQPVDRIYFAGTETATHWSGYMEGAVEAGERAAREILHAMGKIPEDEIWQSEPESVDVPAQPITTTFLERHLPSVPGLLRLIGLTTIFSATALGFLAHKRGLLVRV
Summary of the method: (§1)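 HRP-coupled Amplex Red H2O2 assay, 50 mM sodium phosphate pH 7.4; compounds (8-point 1:3 series, final DMSO <1%) preincubated with enzyme 30 min at 37° C, then 200 uM Amplex Red, 1 U/mL HRP and substrate (MAO-A 0.5 mM tyramine; MAO-B 1 mM benzylamine) added. Resorufin fluorescence (ex 544/em 590 nm) read over 1-2 h; IC50 from four-parameter logistic fit.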

[3] = target: T3, recombinant human MAO-A (monoamine oxidase-A) (Homo sapiens, UniProt P21397); assay: Activity on recombinant human MAO-A, method similar to the VAP-1 assay; details: substrate 0.5 mM tyramine; read-out: Inhibitory Activity (IC50, nM) MAO-A
T3 construct: purchased Sigma-Aldrich
T3 sequence (P21397 1-527): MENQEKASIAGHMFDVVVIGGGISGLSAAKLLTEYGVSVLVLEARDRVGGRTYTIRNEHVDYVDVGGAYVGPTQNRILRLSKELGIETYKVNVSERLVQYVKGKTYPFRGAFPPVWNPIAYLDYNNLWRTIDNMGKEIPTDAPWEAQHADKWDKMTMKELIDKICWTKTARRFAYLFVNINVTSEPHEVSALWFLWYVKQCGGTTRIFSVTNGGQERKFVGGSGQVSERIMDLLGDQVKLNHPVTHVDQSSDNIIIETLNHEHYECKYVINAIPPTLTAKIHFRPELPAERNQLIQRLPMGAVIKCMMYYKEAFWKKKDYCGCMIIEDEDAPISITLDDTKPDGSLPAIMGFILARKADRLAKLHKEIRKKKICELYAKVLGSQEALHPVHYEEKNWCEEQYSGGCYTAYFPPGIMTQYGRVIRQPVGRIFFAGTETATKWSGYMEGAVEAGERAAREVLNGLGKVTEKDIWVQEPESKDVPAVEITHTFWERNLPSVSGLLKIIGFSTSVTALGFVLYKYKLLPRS
Summary of the method: as §1

recombinant human VAP-1 = target: T4, recombinant human VAP-1 (Homo sapiens, UniProt Q16853); assay: Activity on recombinant human VAP-1, HRP-coupled Amplex Red hydrogen peroxide assay; details: substrate 1 mM benzylamine; compound incubated with enzyme at 37° C. for 30 minutes; pH 7.4; read-out: Inhibitory Activity (IC50, nM) human VAP-1
T4 construct: purchased R&D systems
T4 sequence (Q16853 1-763): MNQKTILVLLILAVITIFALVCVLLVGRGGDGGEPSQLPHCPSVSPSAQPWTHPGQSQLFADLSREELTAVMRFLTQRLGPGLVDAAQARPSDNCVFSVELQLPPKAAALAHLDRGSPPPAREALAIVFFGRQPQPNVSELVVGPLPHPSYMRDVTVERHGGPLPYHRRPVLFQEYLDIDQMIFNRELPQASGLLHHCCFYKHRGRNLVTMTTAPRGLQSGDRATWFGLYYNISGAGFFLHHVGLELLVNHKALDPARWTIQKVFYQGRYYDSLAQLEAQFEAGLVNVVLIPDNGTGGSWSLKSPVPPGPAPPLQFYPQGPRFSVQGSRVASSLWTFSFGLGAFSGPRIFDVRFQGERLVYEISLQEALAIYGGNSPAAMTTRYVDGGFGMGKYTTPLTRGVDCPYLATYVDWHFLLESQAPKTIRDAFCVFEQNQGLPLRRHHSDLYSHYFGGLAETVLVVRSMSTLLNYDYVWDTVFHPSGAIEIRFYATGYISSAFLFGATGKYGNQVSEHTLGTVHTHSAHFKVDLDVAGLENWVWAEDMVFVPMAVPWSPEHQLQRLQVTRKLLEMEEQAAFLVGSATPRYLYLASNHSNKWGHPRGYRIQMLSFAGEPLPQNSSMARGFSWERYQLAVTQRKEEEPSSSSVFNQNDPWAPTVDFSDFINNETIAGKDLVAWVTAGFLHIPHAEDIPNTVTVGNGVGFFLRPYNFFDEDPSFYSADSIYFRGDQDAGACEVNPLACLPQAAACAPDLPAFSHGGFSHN
Summary of the method: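 8-point 1:3 dilutions, final DMSO <1%; 30 min enzyme preincubation, 37 °C, pH 7.4 phosphate. Start: 1 mM benzylamine + 200 uM Amplex Red + 1 U/mL HRP. Read ex544/em590 over 1-2 h; % rate decrease vs DMSO control, 4-parameter logistic IC50.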

Compound	IC50 [1]	IC50 [2]	IC50 [3]	IC50 (recombinant human VAP-1)
NC/C(=C\F)Cn1ncn(Cc2ccc(-c3ccc(S(=O)(=O)NC4CC4)cc3)s2)c1=O [Example 197, 4-[5-({1-[(2E)-2-(aminomethyl)-3-fluoroprop-2-en-1-yl]-5-oxo-1,5-dihydro-4H-1,2,4-triazol-4-yl}methyl)thiophen-2-yl]-N-cyclopropylbenzenesulfonamide]	340 nM	2700 nM	> 100000 nM	2 nM
NC/C(=C\F)Cn1ncn(Cc2ccc(-c3ccc(N4CCNCC4)nc3)s2)c1=O [Example 199, 2-[(2E)-2-(aminomethyl)-3-fluoroprop-2-en-1-yl]-4-({5-[6-(piperazin-1-yl)pyridin-3-yl]thiophen-2-yl}methyl)-2,4-dihydro-3H-1,2,4-triazol-3-one]	1100 nM	> 100000 nM	> 100000 nM	8.8 nM
CS(=O)(=O)c1ccc(-c2csc(Cn3cnn(C/C(=C/F)CN)c3=O)c2)cc1 [Example 201]	450 nM	3000 nM	> 100000 nM	1.5 nM
NC/C(=C\F)Cn1ncn(Cc2cc3cc(-c4ccc5c(c4)OCO5)ccc3s2)c1=O [Example 207, 2-[(2E)-2-(aminomethyl)-3-fluoroprop-2-en-1-yl]-4-{[5-(1,3-benzodioxol-5-yl)-1-benzothiophen-2-yl]methyl}-2,4-dihydro-3H-1,2,4-triazol-3-one]	2800 nM	64 nM	> 100000 nM	3.8 nM
CS(=O)(=O)c1ccc(-c2ccc3sc(Cn4cnn(C/C(=C/F)CN)c4=O)cc3c2)cc1 [Example 208, 2-[(2E)-2-(aminomethyl)-3-fluoroprop-2-en-1-yl]-4-({5-[4-(methylsulfonyl)phenyl]-1-benzothiophen-2-yl}methyl)-2,4-dihydro-3H-1,2,4-triazol-3-one]	780 nM	26000 nM	> 100000 nM	1.2 nM
NC/C(=C\F)Cn1ncn(Cc2cc3cc(-c4ccc(C(F)(F)F)nc4)ccc3s2)c1=O [Example 209, 2-[(2E)-2-(aminomethyl)-3-fluoroprop-2-en-1-yl]-4-({5-[6-(trifluoromethyl)pyridin-3-yl]-1-benzothiophen-2-yl}methyl)-2,4-dihydro-3H-1,2,4-triazol-3-one]	1500 nM	990 nM	> 100000 nM	2.3 nM
Cc1cc(-c2ccc3sc(Cn4cnn(C/C(=C/F)CN)c4=O)cc3c2)cc2c1NC(=O)CC2 [Example 210, 6-[2-({1-[(2E)-2-(aminomethyl)-3-fluoroprop-2-en-1-yl]-5-oxo-1,5-dihydro-4H-1,2,4-triazol-4-yl}methyl)-1-benzothiophen-5-yl]-8-methyl-3,4-dihydroquinolin-2(1H)-one]	590 nM	9200 nM	> 100000 nM	1.7 nM
CN1C(=O)CCc2cc(-c3ccc4sc(Cn5cnn(C/C(=C/F)CN)c5=O)cc4c3)ccc21 [Example 211, 6-[2-({1-[(2E)-2-(aminomethyl)-3-fluoroprop-2-en-1-yl]-5-oxo-1,5-dihydro-4H-1,2,4-triazol-4-yl}methyl)-1-benzothiophen-5-yl]-1-methyl-3,4-dihydroquinolin-2(1H)-one]	1000 nM	7900 nM	49000 nM	1.9 nM
CN(C)c1ccc(-c2ccc3sc(Cn4cnn(C/C(=C/F)CN)c4=O)cc3c2)cn1 [Example 212, 2-[(2E)-2-(aminomethyl)-3-fluoroprop-2-en-1-yl]-4-({5-[6-(dimethylamino)pyridin-3-yl]-1-benzothiophen-2-yl}methyl)-2,4-dihydro-3H-1,2,4-triazol-3-one]	77000 nM	4900 nM	37000 nM	2.3 nM
NC/C(=C\F)Cn1ncn(Cc2cc3cc(-c4ccc(N5CCNCC5)cc4)ccc3s2)c1=O [Example 213, 2-[(2E)-2-(aminomethyl)-3-fluoroprop-2-en-1-yl]-4-({5-[4-(piperazin-1-yl)phenyl]-1-benzothiophen-2-yl}methyl)-2,4-dihydro-3H-1,2,4-triazol-3-one]	1500 nM	5200 nM	> 100000 nM	3 nM
CCn1cc(-c2ccc3sc(Cn4cnn(C/C(=C/F)CN)c4=O)cc3c2)cn1 [Example 214, 2-[(2E)-2-(aminomethyl)-3-fluoroprop-2-en-1-yl]-4-{[5-(1-ethyl-1H-pyrazol-4-yl)-1-benzothiophen-2-yl]methyl}-2,4-dihydro-3H-1,2,4-triazol-3-one]	1400 nM	2200 nM	> 100000 nM	1.6 nM
NC/C(=C\F)Cn1ncn(CCc2ccc(-c3ccc4c(c3)OCO4)s2)c1=O [Example 215, 2-[(2E)-2-(aminomethyl)-3-fluoroprop-2-en-1-yl]-4-{2-[5-(1,3-benzodioxol-5-yl)thiophen-2-yl]ethyl}-2,4-dihydro-3H-1,2,4-triazol-3-one]	380 nM	310 nM	> 100000 nM	1.3 nM
